Source: patent publication US12215140B2, “Method of stabilizing protein contained in specimen and solution for stabilizing protein contained in specimen” (EIKEN KAGAKU KABUSHIKI KAISHA, priority 2018, dated 2025)
Values belong to the compound of their own block, whether it stands above or below them.

Target: hemoglobin (Homo sapiens, UniProt P68871+P69905)
Assay: Stability of hemoglobin in samples preserved at 37° C. in preservation solution containing no haptoglobin, Hb measured by latex agglutination method (Examples 8, 9 and Table 10)
Details: for recovery ratio of hemoglobin in the sample: sugar further added to phenylboronic acid 0.5 mmol/L, no haptoglobin, Feces 1, Feces 2, Feces 3
Description: Preservation solutions were prepared with the addition of 40 mmol/L HEPES (pH 6.8), 0.1% BSA, 0.1% NaN3, and 0 to 2.5 mmol/L phenylboronic acid. […] Samples obtained by adding hemoglobin-added fecal specimens to the preservation solutions so that the fecal concentration would be 0.5% were preserved at 37° C. for 0, 16, 38, and 62 hours. The fecal specimens were added with hemoglobin having an amount such that the hemoglobin concentration in the samples would be about 300 μg/L. Instead of the fecal specimens to which hemoglobin was added, samples containing no fecal specimens, in which hemoglobin was added to the preservation solutions so that the hemoglobin concentration in the samples would be 300 μg/L, were similarly preserved. The hemoglobin (Hb) concentrations (μg/L) in the preserved samples were measured by the latex agglutination method using the same measurement reagent and measurement device as in Example 1.
The concentration of phenylboronic acid in the preservation solutions of Example 8 was fixed to 0.5 mmol/L, preservation solutions to which sorbitol or sucrose was further added at 10 to 250 mmol/L or trehalose, glucose, fructose, or mannitol was further added at 50 to 100 mmol/L were prepared, and testing was conducted in the same manner as in Example 8. In addition, preservation solutions to which the phenylboronic acid was added but no sugar was added were prepared, preservation solutions to which the phenylboronic acid and sugar were not added were prepared for the comparative examples, and testing was conducted in the same manner.
For comparative examples, preservation solutions to which no arylboronic acid was added were prepared, and testing was conducted in the same manner.

[1] = Feces 1, 0 h at 37° C., arylboronic acid 0.5 mmol/L, no sugar
[2] = Feces 1, 16 h at 37° C., arylboronic acid 0.5 mmol/L, no sugar
[3] = Feces 1, 38 h at 37° C., arylboronic acid 0.5 mmol/L, no sugar
[4] = Feces 1, 62 h at 37° C., arylboronic acid 0.5 mmol/L, no sugar
[5] = Feces 1, arylboronic acid 0.5 mmol/L, 0 h at 37° C.
[6] = Feces 1, arylboronic acid 0.5 mmol/L, 16 h at 37° C.
[7] = Feces 1, arylboronic acid 0.5 mmol/L, 38 h at 37° C.
[8] = Feces 1, arylboronic acid 0.5 mmol/L, 62 h at 37° C.
[9] = Feces 2, 0 h at 37° C., arylboronic acid 0.5 mmol/L, no sugar
[10] = Feces 2, 16 h at 37° C., arylboronic acid 0.5 mmol/L, no sugar
[11] = Feces 2, 38 h at 37° C., arylboronic acid 0.5 mmol/L, no sugar
[12] = Feces 2, 62 h at 37° C., arylboronic acid 0.5 mmol/L, no sugar
[13] = Feces 2, arylboronic acid 0.5 mmol/L, 0 h at 37° C.
[14] = Feces 2, arylboronic acid 0.5 mmol/L, 16 h at 37° C.
[15] = Feces 2, arylboronic acid 0.5 mmol/L, 38 h at 37° C.
[16] = Feces 2, arylboronic acid 0.5 mmol/L, 62 h at 37° C.
[17] = Feces 3, 0 h at 37° C., arylboronic acid 0.5 mmol/L, no sugar
[18] = Feces 3, 16 h at 37° C., arylboronic acid 0.5 mmol/L, no sugar
[19] = Feces 3, 38 h at 37° C., arylboronic acid 0.5 mmol/L, no sugar
[20] = Feces 3, 62 h at 37° C., arylboronic acid 0.5 mmol/L, no sugar
[21] = Feces 3, arylboronic acid 0.5 mmol/L, 0 h at 37° C.
[22] = Feces 3, arylboronic acid 0.5 mmol/L, 16 h at 37° C.
[23] = Feces 3, arylboronic acid 0.5 mmol/L, 38 h at 37° C.
[24] = Feces 3, arylboronic acid 0.5 mmol/L, 62 h at 37° C.
[25] = No feces, 0 h at 37° C., arylboronic acid 0.5 mmol/L, no sugar
[26] = No feces, 16 h at 37° C., arylboronic acid 0.5 mmol/L, no sugar
[27] = No feces, 38 h at 37° C., arylboronic acid 0.5 mmol/L, no sugar
[28] = No feces, 62 h at 37° C., arylboronic acid 0.5 mmol/L, no sugar
[29] = No feces, arylboronic acid 0.5 mmol/L, 0 h at 37° C.
[30] = No feces, arylboronic acid 0.5 mmol/L, 16 h at 37° C.
[31] = No feces, arylboronic acid 0.5 mmol/L, 38 h at 37° C.
[32] = No feces, arylboronic acid 0.5 mmol/L, 62 h at 37° C.
[33] = Feces 1, 0 h at 37° C., no phenylboronic acid, sugar 100 mmol/L
[34] = Feces 1, 16 h at 37° C., no phenylboronic acid, sugar 100 mmol/L
[35] = Feces 1, 38 h at 37° C., no phenylboronic acid, sugar 100 mmol/L
[36] = Feces 1, 62 h at 37° C., no phenylboronic acid, sugar 100 mmol/L
[37] = Feces 2, 0 h at 37° C., no phenylboronic acid, sugar 100 mmol/L
[38] = Feces 2, 16 h at 37° C., no phenylboronic acid, sugar 100 mmol/L
[39] = Feces 2, 38 h at 37° C., no phenylboronic acid, sugar 100 mmol/L
[40] = Feces 2, 62 h at 37° C., no phenylboronic acid, sugar 100 mmol/L
[41] = Feces 3, 0 h at 37° C., no phenylboronic acid, sugar 100 mmol/L
[42] = Feces 3, 16 h at 37° C., no phenylboronic acid, sugar 100 mmol/L
[43] = Feces 3, 38 h at 37° C., no phenylboronic acid, sugar 100 mmol/L
[44] = Feces 3, 62 h at 37° C., no phenylboronic acid, sugar 100 mmol/L
[45] = No feces, 0 h at 37° C., no phenylboronic acid, sugar 100 mmol/L
[46] = No feces, 16 h at 37° C., no phenylboronic acid, sugar 100 mmol/L
[47] = No feces, 38 h at 37° C., no phenylboronic acid, sugar 100 mmol/L
[48] = No feces, 62 h at 37° C., no phenylboronic acid, sugar 100 mmol/L

Sequence of hemoglobin (P69905 2-142): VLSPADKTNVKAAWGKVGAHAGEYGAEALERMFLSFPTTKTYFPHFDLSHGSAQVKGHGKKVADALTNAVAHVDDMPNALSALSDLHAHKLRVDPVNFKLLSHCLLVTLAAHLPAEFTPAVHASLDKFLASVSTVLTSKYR
Sequence of hemoglobin (P68871 2-147): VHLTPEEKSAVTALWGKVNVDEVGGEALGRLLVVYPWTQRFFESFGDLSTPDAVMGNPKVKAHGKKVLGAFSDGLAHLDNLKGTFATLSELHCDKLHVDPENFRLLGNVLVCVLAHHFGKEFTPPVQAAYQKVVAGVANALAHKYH

Hb concentration [1]: 296 µg/L
Recovery ratio with respect to Hb after 0 days [1]: 100%
Hb concentration [2]: 163 µg/L
Recovery ratio with respect to Hb after 0 days [2]: 55%
Hb concentration [3]: 68 µg/L
Recovery ratio with respect to Hb after 0 days [3]: 23%
Hb concentration [4]: 20 µg/L
Recovery ratio with respect to Hb after 0 days [4]: 7%
Hb concentration [5]: 296 µg/L
Recovery ratio with respect to Hb after 0 days [5]: 100%
Hb concentration [6]: 163 µg/L
Recovery ratio with respect to Hb after 0 days [6]: 55%
Hb concentration [7]: 68 µg/L
Recovery ratio with respect to Hb after 0 days [7]: 23%
Hb concentration [8]: 20 µg/L
Recovery ratio with respect to Hb after 0 days [8]: 7%
Hb concentration [9]: 288 µg/L
Recovery ratio with respect to Hb after 0 days [9]: 100%
Hb concentration [10]: 90 µg/L
Recovery ratio with respect to Hb after 0 days [10]: 31%
Hb concentration [11]: 8 µg/L
Recovery ratio with respect to Hb after 0 days [11]: 3%
Hb concentration [12]: 0 µg/L
Recovery ratio with respect to Hb after 0 days [12]: 0%
Hb concentration [13]: 288 µg/L
Recovery ratio with respect to Hb after 0 days [13]: 100%
Hb concentration [14]: 90 µg/L
Recovery ratio with respect to Hb after 0 days [14]: 31%
Hb concentration [15]: 8 µg/L
Recovery ratio with respect to Hb after 0 days [15]: 3%
Hb concentration [16]: 0 µg/L
Recovery ratio with respect to Hb after 0 days [16]: 0%
Hb concentration [17]: 281 µg/L
Recovery ratio with respect to Hb after 0 days [17]: 100%
Hb concentration [18]: 95 µg/L
Recovery ratio with respect to Hb after 0 days [18]: 34%
Hb concentration [19]: 5 µg/L
Recovery ratio with respect to Hb after 0 days [19]: 2%
Hb concentration [20]: 0 µg/L
Recovery ratio with respect to Hb after 0 days [20]: 0%
Hb concentration [21]: 281 µg/L
Recovery ratio with respect to Hb after 0 days [21]: 100%
Hb concentration [22]: 95 µg/L
Recovery ratio with respect to Hb after 0 days [22]: 34%
Hb concentration [23]: 5 µg/L
Recovery ratio with respect to Hb after 0 days [23]: 2%
Hb concentration [24]: 0 µg/L
Recovery ratio with respect to Hb after 0 days [24]: 0%
Hb concentration [25]: 299 µg/L
Recovery ratio with respect to Hb after 0 days [25]: 100%
Hb concentration [26]: 279 µg/L
Recovery ratio with respect to Hb after 0 days [26]: 94%
Hb concentration [27]: 264 µg/L
Recovery ratio with respect to Hb after 0 days [27]: 88%
Hb concentration [28]: 266 µg/L
Recovery ratio with respect to Hb after 0 days [28]: 89%
Hb concentration [29]: 299 µg/L
Recovery ratio with respect to Hb after 0 days [29]: 100%
Hb concentration [30]: 279 µg/L
Recovery ratio with respect to Hb after 0 days [30]: 94%
Hb concentration [31]: 264 µg/L
Recovery ratio with respect to Hb after 0 days [31]: 88%
Hb concentration [32]: 266 µg/L
Recovery ratio with respect to Hb after 0 days [32]: 89%
SMILES: O=C(O)c1cccc(B(O)O)c1 [3C-PBA, 3-carboxyphenylboronic acid]

SMILES: OC[C@H]1O[C@@](CO)(O[C@H]2O[C@H](CO)[C@@H](O)[C@H](O)[C@H]2O)[C@@H](O)[C@@H]1O [Sucrose, sucrose]
Hb concentration [33]: 271 µg/L
Recovery ratio with respect to Hb after 0 days [33]: 100%
Hb concentration [34]: 137 µg/L
Recovery ratio with respect to Hb after 0 days [34]: 51%
Hb concentration [35]: 45 µg/L
Recovery ratio with respect to Hb after 0 days [35]: 16%
Hb concentration [36]: 10 µg/L
Recovery ratio with respect to Hb after 0 days [36]: 4%
Hb concentration [37]: 255 µg/L
Recovery ratio with respect to Hb after 0 days [37]: 100%
Hb concentration [38]: 57 µg/L
Recovery ratio with respect to Hb after 0 days [38]: 22%
Hb concentration [39]: 3 µg/L
Recovery ratio with respect to Hb after 0 days [39]: 1%
Hb concentration [40]: 0 µg/L
Recovery ratio with respect to Hb after 0 days [40]: 0%
Hb concentration [41]: 257 µg/L
Recovery ratio with respect to Hb after 0 days [41]: 100%
Hb concentration [42]: 67 µg/L
Recovery ratio with respect to Hb after 0 days [42]: 26%
Hb concentration [43]: 0 µg/L
Recovery ratio with respect to Hb after 0 days [43]: 0%
Hb concentration [44]: 0 µg/L
Recovery ratio with respect to Hb after 0 days [44]: 0%
Hb concentration [45]: 278 µg/L
Recovery ratio with respect to Hb after 0 days [45]: 100%
Hb concentration [46]: 245 µg/L
Recovery ratio with respect to Hb after 0 days [46]: 88%
Hb concentration [47]: 229 µg/L
Recovery ratio with respect to Hb after 0 days [47]: 83%
Hb concentration [48]: 224 µg/L
Recovery ratio with respect to Hb after 0 days [48]: 81%
recovery ratio of hemoglobin in the sample: further improved

Hb concentration [33]: 290 µg/L
Recovery ratio with respect to Hb after 0 days [33]: 100%
Hb concentration [34]: 146 µg/L
Recovery ratio with respect to Hb after 0 days [34]: 50%
Hb concentration [35]: 39 µg/L
Recovery ratio with respect to Hb after 0 days [35]: 13%
Hb concentration [36]: 1 µg/L
Recovery ratio with respect to Hb after 0 days [36]: 0%
Hb concentration [37]: 275 µg/L
Recovery ratio with respect to Hb after 0 days [37]: 100%
Hb concentration [38]: 61 µg/L
Recovery ratio with respect to Hb after 0 days [38]: 22%
Hb concentration [39]: 0 µg/L
Recovery ratio with respect to Hb after 0 days [39]: 0%
Hb concentration [40]: 0 µg/L
Recovery ratio with respect to Hb after 0 days [40]: 0%
Hb concentration [41]: 277 µg/L
Recovery ratio with respect to Hb after 0 days [41]: 100%
Hb concentration [42]: 49 µg/L
Recovery ratio with respect to Hb after 0 days [42]: 18%
Hb concentration [43]: 1 µg/L
Recovery ratio with respect to Hb after 0 days [43]: 0%
Hb concentration [44]: 0 µg/L
Recovery ratio with respect to Hb after 0 days [44]: 0%
Hb concentration [45]: 300 µg/L
Recovery ratio with respect to Hb after 0 days [45]: 100%
Hb concentration [46]: 263 µg/L
Recovery ratio with respect to Hb after 0 days [46]: 88%
Hb concentration [47]: 245 µg/L
Recovery ratio with respect to Hb after 0 days [47]: 82%
Hb concentration [48]: 235 µg/L
Recovery ratio with respect to Hb after 0 days [48]: 79%
recovery ratio of hemoglobin in the sample: further improved
SMILES: OC[C@@H](O)[C@@H](O)[C@H](O)[C@@H](O)CO [Sorbitol, sorbitol]
